# Reference: US9499478B2, “Substituted cyclopentanes for inducing hair growth” (Allergan, Inc., priority 2011, dated 2016)
# Tests used:
# [1] = Dermal tolerability in rats; type: in vivo; settings: female rats, 3 mg/kg/day daily for 8 days; for change in food consumption or body weight gain (in words): IVb decreases not statistically significant
# Procedure: Experimental Design. Female rats were administered either vehicle or one of Cmpds IVa, IIIb, or IVb daily for 8 days. The administered dose was 3 mg/kg/day, at a concentration of 3 mg/mL. Observed data were body weight, viability, food consumption, and dermal observation (skin reaction grading), as known in the art. The vehicle was Formulation A. See Table 1 above.
# [2] = microAmes mutagenesis screen; type: cell-based; settings: with or without metabolic activation
# Source text: Experimental Design. Cmpds IVa, IIIb, and IVb were subjected to the microAmes screen, as known in the art.
# [3] = system: mouse model of hair regrowth; experiment: Piliation studies (mouse model of hair regrowth); type: in vivo, mice
# Procedure: Experimental Design. C57Black/6J, 7-week old female mice (n=10) were employed in piliation studies. Dorsal hair was shaved (area ˜2 cm×4 cm). Dosing of active agent was once per day (QD) by topical administration for 14 days. Observations were conducted for 42-days to determine onset of new hair growth and day of hair growth completion. Compounds were formulated as either a) 50% propylene glycol, 30% ethanol, 20% water, or b) the formulation of Formulation A described above. The experiments reported for FIGS. 4A-4B, 5A-5B, 6A-6B, 8A-8B, and 9A-9B were conducted using a vehicle with formulation of 50% propylene glycol, 30% ethanol, 20% water. The experiments reported for FIGS. 7A-7B were conducted using a vehicle of Formulation A described above.
# Results. For each of FIGS. 4A, 5A, 6A, 7A, 8A and 9A, the histograms depict the day of onset of hair growth. For each of FIGS. 4B, 5B, 6B, 7B, 8B and 9B, the histograms depict the day achieving full hair growth.
# [4] = system: mouse skin; experiment: Pathology assessment of mouse hair regrowth model; type: in vivo, mice; settings: histology, 0.03%; vehicle control still in growth phase
# Source text: Experimental Design. Histological samples from test subjects employed in the studies described in Example 12 were obtained for pathology assessment.
# [5] = Pharmacokinetic assessment of mouse hair regrowth model (blood and skin); type: in vivo, mice; settings: 0.03% dermal daily, all measured time points, LC/MS-MS
# Procedure: Experimental Design. Female C57BL/6J mice (n=2) were assayed per time point per treatment group. Treatment groups: (1) vehicle; (2) 0.03% Cmpd IVa; (3) 0.03% Cmpd IIIb; (4) 0.03% Cmpd IVb; (5) 0.03% bimatoprost. Treatment dosing: dermal daily application of ˜60 uL test compound solution. Blood and skin pharmacokinetic time points were obtained at day 1 (1, 4, 8 and 24-hrs post-dose); day 2 (24-hrs post-dose); day 14 (24-hrs post-dose); and day 42 (28 days post day 14 dose). Bioanalysis employed LC/MS-MS.
# [6] = In vitro human skin penetration, Franz diffusion chamber; type: in vitro ADME; settings: for conversion to bimatoprost in the receptor chamber solution / Percentage Dose Applied, Receptor Chamber Solution, Prodrug / Percentage Dose Applied, Upper ⅓ Dermis, Prodrug: 0.03% in Formulation A; for Percentage Dose Applied, Receptor Chamber Solution, Prodrug / Percentage Dose Applied, Upper ⅓ Dermis, Prodrug: applied agent; for Percentage Dose Applied, Upper ⅓ Dermis, Prodrug: dermis at 48 hrs; for conversion to bimatoprost in skin layers: SC/Epi/Dermis layers
# Source text: Experimental Design. Test material: Dermatomed ex vivo human cadaver posterior trunk skin on 1.0 cm^2 Franz diffusion chamber as known in the art. Test size: 3 skin donors (obtained from New York Firefighters Skin Bank), 3 replicates per donor per formulation. Test formulations: 0.03% active agent (Cmpd IVa, Cmpd IIIb, Cmpd IVb) in Formulation A; control formulation: bimatoprost at 0.03% in Formulation A. Dosing regimen: receptor fluid at 2, 4, 24, and 48 hrs; SC/epidermis and dermis at 48 hrs. Sample analysis: LC/MS-MS to detect bimatoprost and Cmpds IVa, IIIb and IVb.
# [7] = MALDI-MS imaging of compound distribution in mouse skin; type: in vivo
# Procedure: Rationale. In order to determine the penetration, accumulation and/or differential distribution of bimatoprost and compounds disclosed herein upon dermal administration, MALDI-MS (matrix assisted laser desorption ionization mass spectroscopy) imaging was conducted on explanted samples of mouse skin after topical dermal administration.
# Experimental Design. MALDI-MS imaging was conducted on mouse skin strips after administration of bimatoprost or compound disclosed herein once daily for 3 days. Samples of mouse skin were recovered 4 hr after day-3 dosing of compound. Dermal administration was conducted with vehicle, 0.03% bimatoprost, 3% bimatoprost, 0.03% Cmpd IVa, and 3% Cmpd IVa.
# FIG. 16A depicts a typical explanted sample of mouse skin for these studies, wherein Cmpd IVa was applied via dermal administration. FIG. 16B depicts the result of MALDI-MS imaging. The intensity of each pixel within FIG. 16B reflects the concentration of Cmpd IVa at the corresponding point in the image depicted in FIG. 16A. FIG. 16C depicts a representative mass spectrum, corresponding to the region of FIG. 16B indicated by the white circle within FIG. 16B. Accordingly, each pixel of the image of FIG. 16B has an associated mass spectrum, providing the amounts of bimatoprost or other administered compound or metabolite thereof.
Compound,"Body Weight Gain, Mean ± SD [1]","Food Consumption, Mean ± SD [1]",change in food consumption or body weight gain (in words) [1],mutagenicity [2],pharmacological efficacy relative to bimatoprost ([3]; vehicle Formulation A),hair cycle phase at day-42 [4],level in the systemic circulation [5],conversion to bimatoprost in the receptor chamber solution [6],"Percentage Dose Applied, Receptor Chamber Solution, Prodrug [6]","Percentage Dose Applied, Upper ⅓ Dermis, Prodrug [6]",conversion to bimatoprost in skin layers [6],activity in the time required to regain full hair growth ([3]; among compounds tested),effectiveness of 0.03% compound compared to 0.1% to 0.3% bimatoprost ([3]; 0.03% Cmpd IVa),"pharmacological efficacy relative to bimatoprost ([3]; vehicle 50% propylene glycol, 30% ethanol, 20% water)",skin penetration of compound compared with bimatoprost ([7]; 3.0% topical dermal administration each),detectability of compound in mouse skin by MALDI-MS imaging ([7]; after topical dermal administration at 0.03%)
"CCNC(=O)CCC/C=C\C[C@@H]1[C@@H](/C=C/[C@@H](O)CCc2ccccc2)[C@H](OC(=O)CC)C[C@@H]1O [Cmpd IIIb, 11-propionyl bimatoprost]",10.0 ± 6.1 g,22.8 ± 1.36 g,no significant change,not mutagenic,approximately equivalent efficacy,returned to the resting phase,most undetectable,observed to convert to bimatoprost,0.8%,2.1%,converted to bimatoprost,–,–,–,–,–
"CCNC(=O)CCC/C=C\C[C@@H]1[C@@H](/C=C/[C@@H](O)CCc2ccccc2)[C@H](O)C[C@@H]1O [bimatoprost, (Z)-7-((1R,2R,3R,5S)-3,5-dihydroxy-2-((S,E)-3-hydroxy-5-phenylpent-1-enyl)cyclopentyl)-N-ethylhept-5-enamide, reference compound]",–,–,–,–,–,returned to the resting phase,most undetectable,–,1.1%,7.0%,–,–,–,–,–,–
"CCNC(=O)CCC/C=C\C[C@@H]1[C@@H](/C=C/[C@H](CCc2ccccc2)OC(=O)CC)[C@H](O)C[C@@H]1O [Cmpd IVb, 15-propionyl-bimatoprost]",0.3 ± 6.7 g,19.19 ± 1.32 g,decreases in both food consumption and body weight gain,not mutagenic,approximately equivalent efficacy,returned to the resting phase,most undetectable,observed to convert to bimatoprost,2.1%,1.9%,converted to bimatoprost,best activity,–,–,–,–
"CCNC(=O)CCC/C=C\C[C@@H]1[C@@H](/C=C/[C@H](CCc2ccccc2)OC(C)=O)[C@H](O)C[C@@H]1O [Cmpd IVa, 15-acetyl-bimatoprost]",9.0 ± 3.0 g,21.14 ± 1.08 g,no significant change,not mutagenic,greater than bimatoprost,returned to the resting phase,most undetectable,observed to convert to bimatoprost,4.3%,3.8%,converted to bimatoprost,–,approximately equally effective,greater than bimatoprost,similar,detectable
